Measurements: PMC3778407, “Topochemical control of the photodimerization of aromatic compounds by γ-cyclodextrin thioethers in aqueous solution” (Beilstein Journal of Organic Chemistry, 2013)
Converted amounts (≈) assume the structure as drawn. Read-outs that look alike come from different tables or passages of the source. One block for each molecule: values may come before it.

How the values were obtained:
[1] = design: method as in PMID 21739610; conditions: K/10^6 M^−2; 1:2 host/guest; cited from earlier work
[2] = design: method as in PMID 21739610; conditions: K/10^9 [M^−2]; host/guest 1:2; cited from earlier work
[3] = cited from earlier work
[4] = Aqueous solubility of guests and solubilization by γ-CD thioethers; format: physicochemical; conditions: read-out: [COU]0 solubility of COU
Method: (§1) Because the concentration of the free guest [G]free is determined by two coupled thermodynamic equilibria (Equation 1). The 2-phase solubility equilibrium is expressed by Equation 2 and the equilibrium of complexation by the CD host is formulated in Equation 3. The guest dissolves until the concentration of free guest is equal to the solubility of the guest, [G]0 = [G]free. Consequently, the lower the solubility of the guest in water, the lower the fraction of uncomplexed guests. The lower the concentration of the free guest, the lower the contribution of undesirable and non-specific photodimerization to the total quantum yield, according to Equation 4. Consequently, lowering the aqueous solubility of COU by the addition of salt, taking advantage of the so-called “salting-out effect” [46] appeared to be a plausible way to enhance the reaction selectivity of the syn-HH dimer.
(§2) Photoreaction procedures: Aqueous solutions of the native CDs or γ-CD thioethers (25 mL, 6.0 mM) were added into glass vials containing excess amounts of the guest molecules. To evaluate the salting-out effect on the photo-product distribution of COU, different amounts of sodium sulfate were added to the vials to obtain the desired final salt concentration (Na2SO4 concentration: 0, 0.5, 1.0, and 1.5 M). Sample solutions were thoroughly degassed using sonication. The vials were tightly sealed, protected from light, and magnetically stirred at room temperature. After 72 h, the resulting suspensions were filtered through syringe filters. The concentrations of the reactants in the CD solutions were determined from the UV–vis extinction coefficients at the absorption maxima.

[5] = 1:2 (host/guest) binding constant of COU in γ-CD thioether 2 from solubility measurements
Method: as §1
Both effects based on the salt concentration led to a significant reduction in the contribution of the photodimerization of free COU to the total quantum yield Φ in Equation 4. Taking into account the molar fraction of the formation of syn-HH in water [drawing 5] from Table 3 and in the complex [drawing 6] , and assuming the quantum yield for the complex as Φcomplex = 19%, the total molar fraction [drawing 7] was calculated according to Equation 5, which was derived from Equation 4. The concentration of complexed COU, [COU]C, was determined as the increase in the solubility of COU upon the addition of the host. The calculated total quantum yields and molar fractions of the syn-HH isomer, listed in Table 5, are in good agreement with the measured values, listed in Table 4. It also shoes, that the binding constant K, calculated according to the law of mass action for the 1:2 (host/guest) complex, tremendously increases with the salt concentration leading to a strong increase of the complexed portion of COU. In contrast to the previous ANT system, the quantum yield of COU photodimerization increases with the binding const K, because K is much lower for COU than for ANT so that contribution of free COU is not negligible.
as §2, with “The vials were tightly sealed, protected from light, and magnetically stirred at room temperature. After 72 h, the resulting suspensions were filtered through syringe filters.” left out

SMILES: O=C(O)CCSC[C@H]1O[C@@H]2O[C@H]3[C@H](O)[C@@H](O)[C@@H](O[C@H]4[C@H](O)[C@@H](O)[C@@H](O[C@H]5[C@H](O)[C@@H](O)[C@@H](O[C@H]6[C@H](O)[C@@H](O)[C@@H](O[C@H]7[C@H](O)[C@@H](O)[C@@H](O[C@H]8[C@H](O)[C@@H](O)[C@@H](O[C@H]9[C@H](O)[C@@H](O)[C@@H](O[C@H]1[C@H](O)[C@H]2O)O[C@@H]9CSCCC(=O)O)O[C@@H]8CSCCC(=O)O)O[C@@H]7CSCCC(=O)O)O[C@@H]6CSCCC(=O)O)O[C@@H]5CSCCC(=O)O)O[C@@H]4CSCCC(=O)O)O[C@@H]3CSCCC(=O)O [Host 6]
binding constant K of ACE [1]: 27 10^6 M^−2
1:2 binding constant K of ANT [2]: 6.5 10^9 M^−2

SMILES: O=S(=O)(O)CCSC[C@H]1O[C@@H]2O[C@H]3[C@H](O)[C@@H](O)[C@@H](O[C@H]4[C@H](O)[C@@H](O)[C@@H](O[C@H]5[C@H](O)[C@@H](O)[C@@H](O[C@H]6[C@H](O)[C@@H](O)[C@@H](O[C@H]7[C@H](O)[C@@H](O)[C@@H](O[C@H]8[C@H](O)[C@@H](O)[C@@H](O[C@H]9[C@H](O)[C@@H](O)[C@@H](O[C@H]1[C@H](O)[C@H]2O)O[C@@H]9CSCCS(=O)(=O)O)O[C@@H]8CSCCS(=O)(=O)O)O[C@@H]7CSCCS(=O)(=O)O)O[C@@H]6CSCCS(=O)(=O)O)O[C@@H]5CSCCS(=O)(=O)O)O[C@@H]4CSCCS(=O)(=O)O)O[C@@H]3CSCCS(=O)(=O)O [Host 3]
binding constant K of ACE [1]: 37 10^6 M^−2
1:2 binding constant K of ANT [2]: 6.8 10^9 M^−2

SMILES: OCC(O)CSC[C@H]1O[C@@H]2O[C@H]3[C@H](O)[C@@H](O)[C@@H](O[C@H]4[C@H](O)[C@@H](O)[C@@H](O[C@H]5[C@H](O)[C@@H](O)[C@@H](O[C@H]6[C@H](O)[C@@H](O)[C@@H](O[C@H]7[C@H](O)[C@@H](O)[C@@H](O[C@H]8[C@H](O)[C@@H](O)[C@@H](O[C@H]9[C@H](O)[C@@H](O)[C@@H](O[C@H]1[C@H](O)[C@H]2O)O[C@@H]9CSCC(O)CO)O[C@@H]8CSCC(O)CO)O[C@@H]7CSCC(O)CO)O[C@@H]6CSCC(O)CO)O[C@@H]5CSCC(O)CO)O[C@@H]4CSCC(O)CO)O[C@@H]3CSCC(O)CO (some centres unmarked) [Host 5]
1:2 binding constant K of ANT [2]: 3.7 10^9 M^−2

SMILES: c1ccc2cc3ccccc3cc2c1 [ANT, anthracene]
solubility of free ANT ([3]; water): 0.0004 mM

solubility at 72 h ([4]; water with Na2SO4, thermodynamic from solid, [Na2SO4] 0.5 M): 8.5 mM (≈ 1240 µg/mL)
solubility at 72 h ([4]; water with Na2SO4, thermodynamic from solid, [Na2SO4] 1.0 M): 4.7 mM (≈ 687 µg/mL)
solubility at 72 h ([4]; water with Na2SO4, thermodynamic from solid, [Na2SO4] 1.5 M): 2.6 mM (≈ 380 µg/mL)
solubility at 72 h ([4]; water, thermodynamic from solid, [Na2SO4] 0.0 M): 15.2 mM (≈ 2220 µg/mL)
SMILES: O=c1ccc2ccccc2o1 [COU, coumarin]
aqueous solubility ([3]; water): 15 mM (≈ 2190 µg/mL)

SMILES: COCCOCCOCCSC[C@H]1O[C@@H]2O[C@H]3[C@H](O)[C@@H](O)[C@@H](O[C@H]4[C@H](O)[C@@H](O)[C@@H](O[C@H]5[C@H](O)[C@@H](O)[C@@H](O[C@H]6[C@H](O)[C@@H](O)[C@@H](O[C@H]7[C@H](O)[C@@H](O)[C@@H](O[C@H]8[C@H](O)[C@@H](O)[C@@H](O[C@H]9[C@H](O)[C@@H](O)[C@@H](O[C@H]1[C@H](O)[C@H]2O)O[C@@H]9CSCCOCCOCCOC)O[C@@H]8CSCCOCCOCCOC)O[C@@H]7CSCCOCCOCCOC)O[C@@H]6CSCCOCCOCCOC)O[C@@H]5CSCCOCCOCCOC)O[C@@H]4CSCCOCCOCCOC)O[C@@H]3CSCCOCCOCCOC [Host 7]
1:2 binding constant K of ANT [2]: 7.7 10^9 M^−2

binding constant K of COU complexed in 2 ([5]; [Na2SO4] 0.0 M, 1:2 host/guest, law of mass action, from solubility measurements): 2 10^3 M^−2
binding constant K of COU complexed in 2 ([5]; [Na2SO4] 0.5 M): 30 10^3 M^−2
binding constant K of COU complexed in 2 ([5]; [Na2SO4] 1.0 M): 97 10^3 M^−2
binding constant K of COU complexed in 2 ([5]; [Na2SO4] 1.5 M): 1000 10^3 M^−2
SMILES: O=C(O)CSC[C@H]1O[C@@H]2O[C@H]3[C@H](O)[C@@H](O)[C@@H](O[C@H]4[C@H](O)[C@@H](O)[C@@H](O[C@H]5[C@H](O)[C@@H](O)[C@@H](O[C@H]6[C@H](O)[C@@H](O)[C@@H](O[C@H]7[C@H](O)[C@@H](O)[C@@H](O[C@H]8[C@H](O)[C@@H](O)[C@@H](O[C@H]9[C@H](O)[C@@H](O)[C@@H](O[C@H]1[C@H](O)[C@H]2O)O[C@@H]9CSCC(=O)O)O[C@@H]8CSCC(=O)O)O[C@@H]7CSCC(=O)O)O[C@@H]6CSCC(=O)O)O[C@@H]5CSCC(=O)O)O[C@@H]4CSCC(=O)O)O[C@@H]3CSCC(=O)O [Host 2]
1:2 binding constant K of ANT [2]: 7.7 10^9 M^−2

SMILES: NCCSC[C@H]1O[C@@H]2O[C@H]3[C@H](O)[C@@H](O)[C@@H](O[C@H]4[C@H](O)[C@@H](O)[C@@H](O[C@H]5[C@H](O)[C@@H](O)[C@@H](O[C@H]6[C@H](O)[C@@H](O)[C@@H](O[C@H]7[C@H](O)[C@@H](O)[C@@H](O[C@H]8[C@H](O)[C@@H](O)[C@@H](O[C@H]9[C@H](O)[C@@H](O)[C@@H](O[C@H]1[C@H](O)[C@H]2O)O[C@@H]9CSCCN)O[C@@H]8CSCCN)O[C@@H]7CSCCN)O[C@@H]6CSCCN)O[C@@H]5CSCCN)O[C@@H]4CSCCN)O[C@@H]3CSCCN [Host 1]
highest concentration of ANT achieved, [ANT] ([3]; 6 mM solution of host in water): 0.04 mM
1:2 binding constant K of ANT [2]: 22.8 10^9 M^−2

SMILES: CC(SC[C@H]1O[C@@H]2O[C@H]3[C@H](O)[C@@H](O)[C@@H](O[C@H]4[C@H](O)[C@@H](O)[C@@H](O[C@H]5[C@H](O)[C@@H](O)[C@@H](O[C@H]6[C@H](O)[C@@H](O)[C@@H](O[C@H]7[C@H](O)[C@@H](O)[C@@H](O[C@H]8[C@H](O)[C@@H](O)[C@@H](O[C@H]9[C@H](O)[C@@H](O)[C@@H](O[C@H]1[C@H](O)[C@H]2O)O[C@@H]9CSC(C)C(=O)O)O[C@@H]8CSC(C)C(=O)O)O[C@@H]7CSC(C)C(=O)O)O[C@@H]6CSC(C)C(=O)O)O[C@@H]5CSC(C)C(=O)O)O[C@@H]4CSC(C)C(=O)O)O[C@@H]3CSC(C)C(=O)O)C(=O)O (some centres unmarked) [Host 4]
1:2 binding constant K of ANT [2]: 3.4 10^9 M^−2
